Experimental data reported in patent publication US5780303A, “Method and composition for treating thrombosis” (priority 1995, dated 1998).
Where two headings read alike, the source gives them in different places.

Key:
platelets [1] = assay: Thrombin-stimulated platelet aggregation (Table I); assay type: cell-based, human; conditions: thrombin 2 U/ml, gel-filtered platelets; unit only in text b178 (printed μm)
Procedure: Platelet aggregation assays were performed following the methods of this Example or those of Example IX.G. Platelet aggregation was assessed using the method of Born, Nature 194:927-929 (1962), incorporated herein by reference. Briefly, the change in light transmission was measured through a stirred suspension of platelets in an aggregometer (Model 400 VS, Chrono-Log, Havertown, Pa., USA). […] In studies using thrombin, the PRP was gel-filtered on Sepharose 2B in divalent ion-free Tyroda's solution containing 2% BSA. For all studies, the reference standard was platelet-poor plasma, which was obtained by centrifuging PRP at 1000×g for 5 min.
All aggregation studies were performed at 37° C. with a constantly stirred suspension of 3×10^8 platelets/ml. (Platelet count was determined with the aid of a hemacytometer.) Peptides and stimulants were added to these suspensions in 1% dilutions. The PRP and gel-filtered platelets were used within three hours from the time of blood collection.
Peptide anti-aggregation potencies were determined from dose-responsive curves for the inhibition of the maximum aggregation responses stimulated by physiologic doses of ADP (10 μm) and thrombin (2 U/ml).

platelets [2] = assay type: cell-based, human; conditions: ADP 10 μM, citrated PRP; unit only in text b178 (printed μm); read-out: ADP-Stimulated Aggregation
Procedure: Platelet aggregation assays were performed following the methods of this Example or those of Example IX.G. Platelet aggregation was assessed using the method of Born, Nature 194:927-929 (1962), incorporated herein by reference. Briefly, the change in light transmission was measured through a stirred suspension of platelets in an aggregometer (Model 400 VS, Chrono-Log, Havertown, Pa., USA). Studies employing ADP were performed with platelet-rich plasma (PRP), which was obtained by low-speed centrifugation (200×g for 10 min.) of whole blood freshly drawn into trisodium citrate (at a final concentration of 11 mm). In studies using thrombin, the PRP was gel-filtered on Sepharose 2B in divalent ion-free Tyroda's solution containing 2% BSA. For all studies, the reference standard was platelet-poor plasma, which was obtained by centrifuging PRP at 1000×g for 5 min.
All aggregation studies were performed at 37° C. with a constantly stirred suspension of 3×10^8 platelets/ml. (Platelet count was determined with the aid of a hemacytometer.) Peptides and stimulants were added to these suspensions in 1% dilutions. […]

platelets [3] = assay: Ex vivo platelet aggregation in canine coronary thrombosis model; design: species or system dog
Procedure: For all ex vivo studies (see FIG. 3), control aggregation values were standardized to the percentages of light transmission observed in PRP and PPP samples (0% and 100%, respectively).
(§1) Animals were randomly assigned to two treatment groups: vehicle control (i.e., normal saline) or RGD peptides at various concentrations. Peptides were administered intra-atrially in both bolus and continuous injections. Each bolus injection consisted of 0.5 to 10 mg/kg and was administered 15 minutes before application of the current. A continuous infusion of the same peptide was then started immediately after completion of this initial injection. Animals received a 25 μg/kg/min to 200 μg/kg/min infusion. The anti-thrombotic effects of the peptides were monitored until 30 minutes after the occurrence of a persistent, occlusive thrombus or five hours after the initiation of electrical stimulation (whichever resulted first). If an occlusive thrombus had not developed within four hours after the initiation of current, the peptide infusion was stopped.
Platelet counts and ex vivo aggregation studies were performed one hour before and 1, 3, and 5 hours after application of anodal direct current.
Platelet aggregation was also determined ex vivo at one, three, and five hours after current application. For these studies, arachidonic acid, or collagen was again used to stimulate the platelets.

coronary thrombosis = assay: Electrically induced canine coronary thrombosis, time to full occlusion; assay type: in vivo, dog
Procedure: Male mongrel dogs weighing 14 to 20 kg were selected based on proper aggregation of their platelets in response to arachidonic acid, collagen, and adenosine disphosphate (ADP) and based on similar weights and hemodynamic properties.
Before surgery, the animals were anesthetized with sodium pentobarbital (30 mg/kg, i.v.) and then intubated and ventilated on room air with positive pressure using a respirator (Harvard Apparatus, S. Natick, Mass.) at a volume of 30 ml/kg and a frequency of 12 breaths/min. Surgery, performed under aseptic conditions, was begun with the placement of cannulae into the left carotid artery and jugular vein for monitoring arterial blood pressure (Statham P23 pressure transducer, Gould, Inc., Cardiovascular Products, Oxnard, Calif.) and administering intravenous fluids.
The heart was exposed via a left thoracotomy through the 5th intercostal space. A 2-cm segment of the left circumflex coronary artery (LCCA) was isolated from surrounding tissue by blunt dissection. […] The intra-coronary electrode was constructed by attaching a 25-gauge hypodermic needle tip to a 30-gauge Teflon-insulated silver-coated copper wire. The mechanical occluder was constructed of stainless steel in a C shape with a Teflon screw (2 mm diameter) on top. It was adjusted to control vessel circumference and decrease the reactive hyperemic flow due to a 10-sec (full) occlusion by 50-70% without affecting basal coronary blood flow (FIG. 1). A monopolar epicardial electrode was sutured to the surface of the ventricle in the region of LCCA distribution to monitor ischemic changes in the electrocardiogram (ECG). The left atrium was cannulated with polythylene tubing for administration of the peptide. Continuous recordings of blood pressure, limb lead II ECG, epicardial electrogram, and mean and phasic LCCA blood flow were obtained on a Model 7 polygraph (Grass Instrument Co., Quincy, Mass.).
One hour after the completion of surgery, a 100 micro-amp continuous anodal direct current delivered from a 9 volt nickel-cadmium battery was applied to the intimal surface of the LCCA. The anode of the battery was in series with a 250,000 ohm potentiometer and the intraluminal coronary artery electrode. The electric circuit was completed by placing the cathode in a subcutaneous site. Electrical stimulation was applied for three hours. At the conclusion of each experiment, the heart was fibrillated electrically and quickly removed, and the LCCA was dissected free as far as possible to verify he position of the implanted anodal electrode.
as §1
Coronary thrombosis was quantified as the time to full occlusion. The effects of the various peptide treatments on coronary thrombosis is illustrated in FIG. 4.

[4] = test system: Gore-tex vascular graft thrombosis; assay: Platelet and fibrinogen uptake by Gore-Tex grafts, baboon ex vivo shunt; assay type: in vivo
Procedure: Adult male baboons (weighing 16 to 25 kg) were used in these studies. These were sedated with ketamine hydrochloride (200 to 250 mg intramuscular injection) and maintained under anesthesia with sodium pentobarbital (50 to 75 mg administered intravenously as necessary).
Twenty-four hours before the ex vivo shunt was established, platelets were isolated from 500 ml of blood from the test animal and labelled with ca. of 500 microcuries of indium-111 oxine (Medi+Physics, Emeryville, Calif.), which irreversibly and specifically binds to platelets with an efficiency of 50%. Immediately after labelling, these platelets were then injected back into the animal and allowed to circulate for 24 hours. Immediately before the start of the study, fibrinogen that had been isolated from the animal and labelled with iodine-131 (DuPont Nuclear, Boston, Mass.) was also injected back into the animal. Also at this time, baseline determinations of the clotting and template bleeding times were made, and blood samples were drawn for hematology studies.
To establish the ex vivo shunt, the femoral artery and vein were percutaneously cannulated with introducer catheters (KMA Inc., Mansfield, Mass.). The catheters were then connected to medical-grade, heparin-coatedsilastic tubing (2.59 mm internal diameter, (Extracorporeal Medical Specialties, Inc., King of Prussia, Pa.). […] Finally, a 5 cm-long test segment of a 4 mm (internal diameter) vascular graft was inserted at the apex of the circuit. The graft used in these studies was Gore-tex (expanded polytetrafluoroethylene, (W. L. Gore and Associates, Inc., Flagstaff, Ariz.). An electromagnetic flow probe was then inserted into the tubing circuit to measure blood flow, which was maintained at 100 ml/min. by varying the resistance imported by a partially occluding screw clamp that was distal to the probe. Finally, a 5 cm-long test segment of a 4 mm (internal diameter) vascular graft was inserted at the apex of the circuit. The graft used in these studies was Gore-tex (expanded polytetrafluoroethylene, W. L. Gore and Associates, Inc., Flagstaff, Ariz.).
Platelet deposition onto the grafts was monitored by dynamic scanning with a gamma camera (Sigma 400, Ohio Nuclear, Inc., Sohon, Ohio), which detects the gamma radiation emitted by the ^111 indium-labelled platelets. Once the circuit was in place, the animal was placed under this camera, and blood flow was initiated. Scans were then taken at the rate of one frame per two minutes for two hours. The data from these scans were collected on a dedicated Digital MDA computer (Maynard, Mass.). […]

platelets [5] = assay: Ex vivo platelet aggregation in baboon PRP; conditions: animal 2; PRP at 0, 1, 2 h
Procedure: At one- and two-hour time points, template bleeding times were measured, and blood samples were drawn to assess the hematology aggregation studies. Platelet aggregation studies were performed as described in Example V using ADP as the stimulus.
In addition, platelet aggregation studies were conducted on PRP derived from the second animal. Whole blood was drawn at three time points (0, 1 and 2 hours) of both control and experimental shunts.

platelets [6] = assay: Ex vivo inhibition of platelet aggregation (Table IV); assay type: in vivo; conditions: dose per code
Procedure: Using the method described in Example V to measure ex vivo inhibition of platelet aggregation and the method described in Example VII to measure bleeding, four additional peptides were tested. These peptides included 11J, 11Q, 11K and 11V.

platelets [7] = assay: Platelet aggregation of small cyclic disulfide and lactam peptides; assay type: cell-based; conditions: for potency against platelet aggregation relative to 8×: comparator 8×
Procedure: Platelet aggregation was assessed using the method of Born, Nature 194:927-929 (1962), incorporated herein by reference. Briefly, the change in light transmission was measured through a stirred suspension of platelets in an aggregometer (Model 400 VS, Chrono-Log, Havertown, Pa., USA). […] In studies using thrombin, the PRP was gel-filtered on Sepharose 2B in divalent ion-free Tyrode's solution containing 2% BSA. For all studies, the reference standard was platelet-poor plasma, which was obtained by centrifuging PRP at 1000×g for 5 min.
All aggregation studies were performed at 37° C. with a constantly stirred suspension of 3×10^8 platelets/mL. (Platelet count was determined with the aid of a hemacytometer.) Peptides and stimulants were added to these suspensions in 1% dilutions. The PRP and gel-filtered platelets were used within three hours from the time of blood collection.

[8] = Peripheral blood flow (PBF) by laser doppler probe, rabbit ear; assay type: in vivo; conditions: time 10 min; bolus dose per drug
Procedure: In an alternative series of experiments, (Table 2) PBF was measured quantitatively with a laser dopler flow probe (Perimed). The probe was positioned securely over the vascular bed of one ear and flow monitored continuously. Each inhibitor was infused and CBT measured in the opposing ear. No arterial catheter was placed for blood sampling, consequently XPA […] in these animals.
As positive control, epinephrine was infused intravenously (1 mg over 2 minutes) at 60 minutes. The resulting vasoconstriction reduced flow to near 0 flow units within 5 minutes.

GP IIb/IIIa = GP IIb/IIIa (Homo sapiens, UniProt P05106+P08514); assay: Differential inhibition of ligand binding to GP IIb/IIIa; conditions: fibrinogen vs fibronectin and vitronectin
[9] = animal 1, two bolus IV injections of 10 mg/kg
[10] = animal 2, 10 mg/kg bolus IV plus 10 mg/kg/hr infusion for 2 h

Sequence of GP IIb/IIIa (P08514 32-887 limits assumed): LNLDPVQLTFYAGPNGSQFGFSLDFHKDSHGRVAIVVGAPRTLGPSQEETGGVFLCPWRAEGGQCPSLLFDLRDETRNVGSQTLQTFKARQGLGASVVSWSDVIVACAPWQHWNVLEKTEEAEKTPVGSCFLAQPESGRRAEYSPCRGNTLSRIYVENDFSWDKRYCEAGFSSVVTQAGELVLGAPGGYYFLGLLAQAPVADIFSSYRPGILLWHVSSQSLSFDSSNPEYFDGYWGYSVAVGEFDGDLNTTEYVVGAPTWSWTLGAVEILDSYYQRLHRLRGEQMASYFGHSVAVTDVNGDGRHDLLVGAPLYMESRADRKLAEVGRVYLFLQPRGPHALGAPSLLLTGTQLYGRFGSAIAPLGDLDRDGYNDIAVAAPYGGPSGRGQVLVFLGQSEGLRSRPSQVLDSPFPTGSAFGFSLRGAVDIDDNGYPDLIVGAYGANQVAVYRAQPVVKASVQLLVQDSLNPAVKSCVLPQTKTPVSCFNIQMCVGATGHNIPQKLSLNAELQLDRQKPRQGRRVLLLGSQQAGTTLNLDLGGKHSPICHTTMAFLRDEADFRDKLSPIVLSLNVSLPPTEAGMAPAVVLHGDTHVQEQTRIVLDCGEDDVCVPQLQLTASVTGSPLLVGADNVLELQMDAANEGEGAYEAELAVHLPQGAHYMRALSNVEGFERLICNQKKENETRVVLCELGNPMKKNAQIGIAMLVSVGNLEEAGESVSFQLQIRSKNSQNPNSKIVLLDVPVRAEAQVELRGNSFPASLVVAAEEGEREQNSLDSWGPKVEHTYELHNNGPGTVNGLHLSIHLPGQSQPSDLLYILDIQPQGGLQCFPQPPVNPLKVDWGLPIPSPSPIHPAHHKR
Sequence of GP IIb/IIIa (P08514 891-1039 partner limits assumed): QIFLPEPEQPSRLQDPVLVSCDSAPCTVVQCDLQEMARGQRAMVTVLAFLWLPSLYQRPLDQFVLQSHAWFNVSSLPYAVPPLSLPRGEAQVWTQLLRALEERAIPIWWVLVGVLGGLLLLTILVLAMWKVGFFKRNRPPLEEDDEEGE
Sequence of GP IIb/IIIa (P05106 27-788): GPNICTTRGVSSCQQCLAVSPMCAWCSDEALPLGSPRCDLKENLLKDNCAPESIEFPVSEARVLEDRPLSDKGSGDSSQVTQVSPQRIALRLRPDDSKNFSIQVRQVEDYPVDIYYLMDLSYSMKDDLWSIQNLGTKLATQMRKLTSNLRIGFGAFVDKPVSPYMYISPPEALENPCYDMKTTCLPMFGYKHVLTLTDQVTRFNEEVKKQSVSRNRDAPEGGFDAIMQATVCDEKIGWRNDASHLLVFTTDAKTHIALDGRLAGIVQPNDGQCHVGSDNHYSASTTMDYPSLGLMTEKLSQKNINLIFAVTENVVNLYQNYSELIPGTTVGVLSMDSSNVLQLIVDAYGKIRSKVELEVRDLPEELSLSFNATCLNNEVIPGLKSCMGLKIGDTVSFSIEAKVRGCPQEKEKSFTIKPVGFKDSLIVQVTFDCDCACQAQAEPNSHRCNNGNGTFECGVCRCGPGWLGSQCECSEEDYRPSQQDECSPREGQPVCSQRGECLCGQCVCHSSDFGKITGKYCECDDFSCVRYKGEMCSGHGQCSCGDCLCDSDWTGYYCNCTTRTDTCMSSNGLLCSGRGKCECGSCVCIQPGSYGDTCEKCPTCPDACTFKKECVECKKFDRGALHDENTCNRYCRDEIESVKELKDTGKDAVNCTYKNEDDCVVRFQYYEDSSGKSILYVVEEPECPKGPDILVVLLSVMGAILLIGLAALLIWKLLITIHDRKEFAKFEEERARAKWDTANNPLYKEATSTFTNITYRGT

## R2 (Pen)GHGDTPCA
Platelets [1]
  IC50: 2.7 µM
Platelets [2]
  IC50: 8.2 µM

## G(dPen)GHRGDLRCA
Platelets [2]
  IC50: 5.28 ± 0.7 µM

## R(Pen)GRGDWPCR [4R]
Platelets [3]; 10 mg/kg, all time points
  ex vivo platelet response, all modes of stimulation: unresponsive to all modes of stimulation at all time points
Coronary thrombosis; 3 mg/kg
  time to full occlusion (coronary thrombosis): ineffective
Coronary thrombosis; 10 mg/kg bolus plus infusion
  time to full occlusion (coronary thrombosis): prevented occlusion throughout the duration of the study

## G(Pen)GHRGDLRCA [2G]
Platelets [3]; 10 mg/kg, 1, 3, 5 h
  ex vivo ADP-stimulated aggregation: substantially inhibited
Coronary thrombosis; 10 mg/kg bolus plus infusion
  time to full occlusion (coronary thrombosis): did not significantly influence this frequency
[4]; [9]
  reduction in 111In-platelet uptake by graft: 90%
  reduction in 131I-fibrinogen uptake by graft: 79%
[4]; [10]
  reduction in labelled fibrinogen uptake by graft: 78%
  reduction in labelled platelet uptake by graft: 84%
Platelets [5]
  ex vivo platelet response to ADP (10 μM): completely unresponsive

## Ac-CNPRGD(Y-OMe)EC-NH2 [11J]
Platelets [6]
  ex vivo inhibition of platelet aggregation (%): > 98%

## RGD(O-Me-Y)RE-NH2 [21I]
Platelets [7]
  potency against platelet aggregation relative to 8×: about three-fold more reactive than 8×

## Ac-CNPRGD(Y-OMe)(Nle)C-NH2 [11V]
Platelets [6]
  ex vivo inhibition of platelet aggregation (%): > 98%

## R(Pen)GHRGDWRCR [4Q]
Platelets [3]; 5 mg/kg
  ex vivo platelet activation by collagen: near-maximal inhibition
Platelets [3]; 5 mg/kg, all three time points
  ex vivo platelet response to ADP and AA: completely unresponsive
Platelets [3]; 10 mg/kg, five-hour point
  ex vivo platelet responsiveness: platelet responsiveness was slightly improved
Platelets [3]; 10 mg/kg, one- and three-hour time points
  ex vivo platelet aggregation, all three stimuli: prevented platelet aggregation
[8]
  PBF (units): 9 units
Coronary thrombosis; 5 mg/kg
  time to full occlusion (coronary thrombosis): significantly prolonged the time to occlusion
Coronary thrombosis; 5 mg/kg, circulating platelet levels one-third of normal
  thrombus formation: able to prevent thrombus formation
Coronary thrombosis; 10 mg/kg bolus plus infusion
  time to full occlusion (coronary thrombosis): completely prevented occlusion

## Ac-CNPRGD(Y-OMe)RCNH2 [8x]
GP IIb/IIIa
  differential inhibition of binding of ligands to GP IIb/IIIa: inhibits the binding of fibrinogen to GP IIb/IIIa more than it inhibits the binding of fibronectin and vitronectin to the same integrin

## Ac-CNPKGD(Y-OMe)RC-NH2 [11Q]
Platelets [6]
  ex vivo inhibition of platelet aggregation (%): > 95%

## Ac-CNPRGD(Y-OMe)AC-NH2 [11K]
Platelets [6]
  ex vivo inhibition of platelet aggregation (%): > 98%

## (Myr)RGD(O-Me-Y)RC-NH2 [16A]
Platelets [7]
  potency against platelet aggregation relative to 8×: about two-fold more reactivity than 8×
Platelets [7]; read-out: inhibited platelet aggregation with an IC50
  IC50: 0.12 µM
